Tests used:
[1] = tested on: HMC3 cells; experiment: Inflammatory cytokines in conditioned media (Luminex/BioPlex); type: cell-based, human; settings: EU 200 µM, BCA 125 µM, alone or in combination, 24 h
Procedure: (§1) In order to determine the impact of BCA and/or EU on inflammatory cytokines levels, cytokine expression analyses (L-6, IL-4, IL-8 and TNF-α) were performed using a customized detection panel purchased from Bio-techne (Minneapolis, MN, USA). The cells were seeded, in triplicate, into 24-well culture plates (8 × 10^4 cells/well). After 24 h, the medium was replaced and the cells were treated either with the vehicle (ethanol) or with different concentrations of EO single compounds alone (EU: 2 µM, 20 µM, 200 µM; and BCA: 1.25 µM, 12.5 µM, 125 µM) or in combination (EU 2 µM + BCA 1.25 µM; EU 20 µM + BCA 12.5 µM; and EU 200 µM + BCA 125 µM). The final concentration of ethanol in the cell medium was kept lower than 0.1%. The ethanol 0.1%-treated cells were considered the control condition. After the 24 h treatment, supernatants were collected and centrifuged at 4,000× g for 10 min, and the samples were analyzed with the BioPlex 200 instrument (BioRad®, Hercules, CA, USA) following the manufacturer’s protocol.

[2] = tested on: U87 cells; experiment: as above; type: cell-based, human; settings: EU 200 µM, BCA 125 µM, alone or in combination, 24 h
Procedure: as §1

[3] = tested on: U87 cells; experiment: Metabolic activity (Alamar blue) assay and HSA synergy analysis; type: cell-based, human; settings: EU 2.5, 25, 200 µM or BCA 1.25, 12.5, 125 µM alone, 24-72 h
Procedure: To evaluate the cytotoxic/antiproliferative potential of BCA and/or EU, the U87 and HMC3 cells were seeded, in triplicate, into 48-well culture plates (4 × 10^4 cells/well). After 24 h, the medium was replaced, and the cells were treated either with the vehicle (ethanol) or with different concentrations of EO single molecules, diluted in ethanol alone ([…]; BCA: 1.25 µM, µM, 125 µM) or in combination (EU 2 µM and BCA 1.25 µM; EU 20 µM and BCA 12.5 µM; and EU 200 µM and BCA 125 µM) in order to evaluate the possible synergistic effects. The final concentration of ethanol in the cell medium was kept lower than 0.1%. Non-treated cells were considered the control condition. Metabolic activity was evaluated using a modified Alamar blue® assay, as previously described. […] After 2 h of incubation at 5% CO2 and 37 °C, the absorbance was read at 570 and 600 nm in a BioTeck (BioTek Instruments, Inc., Winooski, VT, USA). The absorbance results were obtained using the Gen5 program. The metabolic activity was then calculated by the following equation: Metabolicactivity %=A570−A600 oftreated cells/A570−A600 ofcontrol cells×100 All data were analyzed using the software GraphPad Prism v.9.00 (GraphPad Software, San Diego, CA, USA). All in vitro experiments were performed in triplicate, and the acquired results were expressed as means ± SEM. […]

[4] = tested on: HMC3 cells; experiment: Cell death assay (Annexin V/PI, flow cytometry); type: cell-based, human; settings: EU 200 µM, BCA 125 µM, alone or in combination, 24 h
Procedure: HMC3 and U87 cells were seeded in duplicate into 12-well plates (10 × 10^4 cells/well). After 24 h of incubation at 37 °C and 5% CO2, the medium was replaced, and the cells were treated either with EU (200 µM) or BCA (125 µM), alone and in combination (EU 200 µM + BCA 125 µM). Following the 24 h treatment, the cells were co-stained with AV-APC and PI according to the manufacturer’s protocol (Biolegend, San Diego, CA, USA). Briefly, the cells were resuspended in binding buffer (100 µL) and incubated with AV-APC solution (5 µL) and PI solution (2 µL) for 15 min at room temperature. Then, the cells were diluted in a binding buffer (400 µL). A six-parameter, four-color FACSCalibur flow cytometer (Becton Dickinson, San Jose, CA, USA) was used, and at least 10,000 events were collected by acquisition using CellQuest software (Becton Dickinson, San Jose, CA, USA). The results were analyzed with the Paint-a-Gate software and expressed in percentage (%).

[5] = rat, in vivo, cited from earlier work
[6] = tested on: HMC3 cells; experiment: Cell cycle analysis (PI/RNase, flow cytometry); type: cell-based, human; settings: EU 200 µM, BCA 125 µM, alone or in combination, 24 h
Procedure: (§2) Analysis of the effect of BCA and/or EU on the cell cycle was assessed with flow cytometry using propidium iodide (PI)/RNase solution, according to the manufacturer’s protocol (Immunostep, Salamanca, Spain), as previously described. HMC3 and U87 cells (30 × 10^4 cells/well) were seeded in triplicate into 6-well plates and incubated for 24 h at 37 °C and 5% CO2. Thereafter, the cells were treated either with EU (200 µM) or BCA (125 µM) alone or in combination (EU 200 µM + BCA 125 µM). After 24 h, the cells were detached and fixed in 70% ethanol for 60 min at 4 °C, washed twice with PBS, and then stained with 500 µL of PI/RNase solution. The results were acquired using CellQuest software and expressed as the calculated percentage of the cell population in each cell cycle phase (G0/G1, S and G2/M) according to the PI intensity.

[7] = tested on: U87 cells; experiment: Cell cycle analysis (PI/RNase, flow cytometry); type: cell-based, human; settings: BCA 125 µM alone or with EU 200 µM, 24 h
Procedure: as §2

## C=C1CC/C=C(\C)CC[C@@H]2[C@@H]1CC2(C)C [BCA, β-Caryophyllene]
[1]
  IL-4 levels, change vs control: −52.2%
  IL-6 secretion, change vs control: −55.5%
  IL-8 secretion, change vs control: −38.0%
  TNF-α secretion, change vs control: −49.7%
[2]
  IL-4 levels, change vs control: −29.3%
  IL-6 secretion, change vs control: None of the treatments modulated
  IL-8 secretion, change vs control: unaffected
[3]
  reduction in metabolic activity, single compounds: No reduction
[4]
  cell viability: did not affect
[5]; po
  oral acute LD50: over 5000 mg/kg
[5]
  No Observed Adverse Effect Level (NOAEL) dose: 700 mg/kg
[6]
  effect on cell cycle: no effects
[7]
  decrease in percentage of cells in the S phase: −49.4%
  increase in percentage of cells in the G0/G1 phase: 21.1%
